Converted amounts (≈) assume the structure as drawn.
Details: buffer; pH 7.4; 200.0 µM

| solubility kinetic | SMILES |
| --- | --- |
| > 49.7 µg/mL | COc1ccc(NC(=O)N2CCCC2C(=O)NC2CCCC2)cc1 (stereo not drawn) |
| > 40.9 µg/mL | CCSc1ccccc1C(=O)NCc1cccnc1 |
| > 33 µg/mL | C=CCNC(=O)c1cc2sccc2n1C |
| > 44.8 µg/mL | CCC(C)[C@H](NC(=O)NCc1ccc(Cl)cc1)C(=O)O (stereo partly drawn) |
| 40.5 µg/mL (≈ 148 µM) | COc1ccc(NC(=O)CNC(=O)c2ccco2)cc1 |
| > 49.4 µg/mL | Br.Cn1ccnc1SCC(=O)c1ccc(O)cc1 |
| > 47.8 µg/mL | Cn1c(C2=C(O)CN(Cc3ccccc3)C2=N)nc2ccccc21 |
| < 0.4 µg/mL | CCC(=O)c1cn(CC(=O)Nc2cccc(C)c2C)c2ccccc12 |
| 33.2 µg/mL (≈ 136 µM) | CC(=O)c1c(C)[nH]c(-c2ccccc2)nc1=S |
| 29.4 µg/mL | CC12CC3CC(C)(C1)CC(N)(C3)C2.Cl |
| 9.5 µg/mL (≈ 36.1 µM) | Cc1cccc(NC(=O)c2ccc([N+](=O)[O-])s2)n1 |
| 31.5 µg/mL (≈ 133 µM) | O=c1c2ccccc2ncn1Cc1ccccc1 |
| > 43.1 µg/mL | O=C(COC(=O)c1cnccn1)c1ccc([N+](=O)[O-])cc1 |
| 34.3 µg/mL (≈ 131 µM) | COC(=O)Cc1nc(Nc2ccccc2)sc1C |
| 28.1 µg/mL (≈ 110 µM) | Cc1ccc2c(c1)c1c3n2CCN(C=O)C3CCC1 (stereo not drawn) |
| > 41.2 µg/mL | O=C(NC1CCCC1)C1CCN(c2cnccn2)CC1 |
| 36.9 µg/mL (≈ 128 µM) | CCOC(=O)C1CCN(c2nc(C)cc(C)c2C#N)CC1 |
| 43.9 µg/mL (≈ 146 µM) | CCCCCCCc1c(O)nc(SCC(=O)O)[nH]c1=O |
| < 0.7 µg/mL | COc1ccc2oc(=O)c(C(=O)NC(C)c3ccccc3)cc2c1 (stereo not drawn) |
| 8.1 µg/mL (≈ 27.4 µM) | Cc1c(C#N)c(NC(=O)C(C)C)n(Cc2ccccc2)c1C |
| > 52.5 µg/mL | CC(=O)c1c(C)[nH]c(C(=O)OCC(=O)Nc2cccnc2Cl)c1C |
| > 52.3 µg/mL | COc1ccc(OC)c(NC(=O)CCCC(=O)NC2CCCCC2)c1 |
| 28.4 µg/mL (≈ 133 µM) | Cc1ccccc1OC(=O)c1cccnc1 |
| 31.1 µg/mL (≈ 114 µM) | O=C(c1cccc(F)c1F)N1CCCc2ccccc21 |

| solubility kinetic | SMILES |
| --- | --- |
| > 49.3 µg/mL | Cc1nn(C)c(NC(=O)c2ccccc2Cl)c1Br |
| 4.3 µg/mL (≈ 13.6 µM) | O=C(COC(=O)c1ccc(O)cc1)Nc1ccccc1[N+](=O)[O-] |
| < 0.3 µg/mL | CCOc1ccccc1NC(=O)N1CCCc2ccccc21 |
| 49.1 µg/mL (≈ 144 µM) | COC(=O)C1CN(C(=O)COc2ccc(C)cc2)c2ccccc2O1 (stereo not drawn) |
| 37.3 µg/mL (≈ 123 µM) | Fc1ccc(NC(=S)N2CCc3ccccc3C2)c(F)c1 |
| 0.6 µg/mL (≈ 1.96 µM) | CCOc1ccccc1NC(=S)NC(=O)C1CCCCC1 |
| > 37.8 µg/mL | O=S(=O)(Nc1cccnc1)c1ccc(F)cc1 |
| 33 µg/mL (≈ 142 µM) | S=C(NC1CC1)N1CCCc2ccccc21 |
| 1.9 µg/mL (≈ 6.23 µM) | O=C(Nc1nccs1)c1ccc(-c2ccc(Cl)cc2)o1 |
| 44.6 µg/mL (≈ 142 µM) | CC1CCCC(NC(=O)COc2ncnc3ccccc23)C1C (stereo not drawn) |
| 39.9 µg/mL (≈ 140 µM) | COc1ccc(CC(=O)O/N=C(\N)c2ccncc2)cc1 |
| > 35.7 µg/mL | Cn1c(=O)c2c(nc3n2CCS3)n(C)c1=O |
| 52.7 µg/mL (≈ 146 µM) | COc1ccc(C(C)(C)C)cc1NC(=O)CCN1C(=O)NC(C)(C)C1=O |
| 1.3 µg/mL (≈ 4.59 µM) | CNC(=S)/N=C(\Nc1ccc(C)cc1)c1ccccc1 |
| > 53.1 µg/mL | O=C(NCCCNC(=O)c1c(F)cccc1F)c1c(F)cccc1F |
| > 46.3 µg/mL | O=C(CSC(=S)N1CCCC1)NCCc1ccccc1 |
| 48.9 µg/mL (≈ 142 µM) | O=C(NCCc1csc(-c2cccnc2)n1)c1c(F)cccc1F |
| 32 µg/mL (≈ 117 µM) | O=S(=O)(c1ccc(=S)[nH]c1)N1CCCCCC1 |
| 39.8 µg/mL (≈ 143 µM) | Cc1cc(=O)cc(C)n1-c1ccccc1Br |
| > 42.8 µg/mL | CCCN(CCC)S(=O)(=O)c1ccc(C(=O)O)cc1 |
| 1.8 µg/mL | CCc1ccc(CCOc2ccc(CC3SC(=O)NC3=O)cc2)nc1.Cl (stereo not drawn) |
| > 45.8 µg/mL | COc1cccc(/C=C/c2[nH]c(=O)[nH]c(=O)c2[N+](=O)[O-])c1O |
| > 39 µg/mL | Cc1ccc(NC(=O)c2ccc([N+](=O)[O-])o2)c(C)c1 |
| 3.9 µg/mL (≈ 13.7 µM) | O=C(COc1ccc2ccccc2c1)Nc1nccs1 |

| solubility kinetic | SMILES |
| --- | --- |
| > 43.2 µg/mL | N#Cc1ccccc1OCC(=O)OCC(=O)N1CCCC1 |
| > 45.6 µg/mL | COCC(=O)Nc1cc(C)cn(Cc2ccc(F)cc2)c1=O |
| 5.7 µg/mL (≈ 17.5 µM) | CN(Cc1ccc(F)cc1)Cc1nc(CCc2ccccc2)no1 |
| 0.8 µg/mL (≈ 2.78 µM) | O=C(Nc1ccc(C(F)(F)F)cn1)Nc1cccs1 |
| > 48.4 µg/mL | COc1ccc(NC(=O)c2cc(C)nc3ccccc23)c(OC)c1 |
| 1.5 µg/mL (≈ 5.33 µM) | Cc1cccc(NC(=O)/C(C#N)=C/c2ccc(F)cc2)n1 |
| > 38.3 µg/mL | Cc1ccc(C(=O)NCc2nc3ccccc3[nH]2)o1 |
| 40.7 µg/mL (≈ 146 µM) | O=C(CS(=O)(=O)c1ccccc1)NCc1ccco1 |
| < 0.3 µg/mL | COc1ccc(NC(=O)c2sc3nc(C)cc(C)c3c2N)c(OC)c1 |
| > 43.3 µg/mL | CCCCNC(=O)C1CC(=O)N(CCc2ccccc2)C1 (stereo not drawn) |
| 8 µg/mL (≈ 26.7 µM) | Cc1ccc(C(=O)c2cc3c(cc2[N+](=O)[O-])OCCO3)cc1 |
| > 70.6 µg/mL | CCOCCCNCC(=O)Nc1cc(S(=O)(=O)N2CCOCC2)ccc1N1CCOCC1 |
| 36.6 µg/mL (≈ 145 µM) | O=C(/C=C/c1ccccc1Cl)N1CCOCC1 |
| 7.4 µg/mL (≈ 23.5 µM) | Cc1nc2cc(NC(=O)Nc3ccccc3Cl)ccc2n1C |
| 41.9 µg/mL (≈ 140 µM) | Fc1ccc(NC(=S)Nc2ccc3nccnc3c2)cc1 |
| > 35.4 µg/mL | COc1ccc(CC2SC(N)=NC2=O)cc1 (stereo not drawn) |
| 3.4 µg/mL (≈ 11.5 µM) | Cc1ccc(S(=O)(=O)Nc2ccc(Cl)cn2)cc1C |
| 16.5 µg/mL (≈ 59.9 µM) | CCOc1ccccc1NC(=O)c1csc(C)c1C |
| > 49 µg/mL | NC(=O)C1CCN(S(=O)(=O)c2ccc3c(c2)OCCO3)CC1 |
| > 57.1 µg/mL | CCC(=O)c1ccc(OCC(=O)NCc2ccccc2CN2CCCC2)cc1 |
| > 57.7 µg/mL | O=S(=O)(Nc1cccc(S(=O)(=O)N2CCCC2)c1)c1ccccc1F |
| > 49 µg/mL | O=C(CN1C(=O)NC(Cc2c[nH]c3ccccc23)C1=O)NC1CC1 (stereo not drawn) |
| 42.8 µg/mL (≈ 137 µM) | O=C(CCNC(=O)c1ccccc1Cl)NC1=NCCS1 |
| > 59.6 µg/mL | Cc1noc(NS(=O)(=O)c2ccc(NC(=O)/C=C/c3ccccc3)cc2)c1C |

| solubility kinetic | SMILES |
| --- | --- |
| 38.6 µg/mL (≈ 120 µM) | C=CCn1c(SCC(N)=O)nc2sc3c(c2c1=O)CCC3 |
| > 51.1 µg/mL | Cc1ccc(C)c(NC(=O)CSc2nnc(-c3ccncc3)o2)c1 |
| 29.6 µg/mL (≈ 127 µM) | Cc1ccc(C(=O)N2CC(=O)NC(=O)C2)cc1 |
| 24.2 µg/mL (≈ 43.1 µM) | CCOc1cc(C(=O)OCC(=O)Nc2cccc(S(=O)(=O)NC3=NCCCCC3)c2)cc(OCC)c1OCC |
| < 0.2 µg/mL | CCN(CC)c1ccc(Nc2nc(-c3cccnc3)cs2)cc1 |
| > 42.7 µg/mL | CCc1nnc(NC(=O)CN2CC(C)OC(C)C2)s1 (stereo not drawn) |
| 14.7 µg/mL (≈ 43.6 µM) | NC(=O)c1ccc(SCC(=O)NC2CCCCC2)c([N+](=O)[O-])c1 |
| < 0.2 µg/mL | c1ccc(-c2cn(-c3ccccc3)c3ncnc(N4CCCCC4)c23)cc1 |
| > 42.7 µg/mL | Cc1ccsc1C(=O)NCCc1c[nH]c2ccccc12 |
| < 0.3 µg/mL | COc1cccc(C(=O)Nc2cccc3cccnc23)c1OC |
| 44.2 µg/mL (≈ 141 µM) | CC12CS(=O)(=O)CC1SC(=S)N2Cc1ccccc1 (stereo not drawn) |
| 25 µg/mL (≈ 101 µM) | O=C(O)CN1C(=O)CC(c2ccccc2)CC1=O |
| 2.3 µg/mL (≈ 7.29 µM) | Cc1nc(N2CCCCC2)c2c(-c3cccs3)csc2n1 |
| 40.6 µg/mL (≈ 146 µM) | Cc1cc(C)nc(SSc2nc(C)cc(C)n2)n1 |
| 31.9 µg/mL (≈ 109 µM) | CCOCCCNC1=C(Cl)C(=O)c2ccccc2C1=O |
| 3.9 µg/mL (≈ 18 µM) | COc1ccccc1-c1ccc(/C=N/O)o1 |
| > 50.3 µg/mL | Cc1cc(NC(=O)COC(=O)C2CCC(=O)N2)c([N+](=O)[O-])cc1C (stereo not drawn) |
| > 48.7 µg/mL | Cc1ccc(S(=O)(=O)N(C)C)cc1NC(=O)C1CCCCC1 |
| > 49.4 µg/mL | O=C(CN1C(=O)c2ccc([N+](=O)[O-])cc2C1=O)NCc1ccco1 |
| 31.7 µg/mL (≈ 112 µM) | CSCCC(NC(=O)COc1ccccc1)C(=O)O (stereo not drawn) |
| 0.6 µg/mL (≈ 1.72 µM) | COC(=O)c1ccc(C(=O)OC)c(NC(=O)CN2CCC(C)CC2)c1 |
| > 41.9 µg/mL | Cn1cc(-c2ccccc2C(=O)O)c(=O)c2ccccc21 |
| > 43.3 µg/mL | CCCCOCCCNC(=O)N[C@H](C(=O)O)C(C)CC (stereo partly drawn) |
| > 49.9 µg/mL | COc1cc(/C=C2\SC(N3CCC(C)CC3)=NC2=O)ccc1O |

| solubility kinetic | SMILES |
| --- | --- |
| < 0.7 µg/mL | CNC(=O)c1cc2cc(Cc3ccccc3Cl)ccc2oc1=O |
| > 43.1 µg/mL | CC(=O)CC(CC(=O)NC1CCCCC1)c1ccccc1 (stereo not drawn) |
| > 40.8 µg/mL | Cl.ClCCN1C2=NCCCN2c2ccccc21 |
| 0.8 µg/mL (≈ 2.15 µM) | O=c1c2ccccc2nc(/C=C/c2ccc(Br)cc2)n1CCO |
| > 34.8 µg/mL | N#CC1CCN(c2ncccc2[N+](=O)[O-])CC1 |
| 1.5 µg/mL (≈ 3.25 µM) | O=C(NC1CCCCC1)c1cc(S(=O)(=O)N2CCN(c3ccccc3)CC2)ccc1Cl |
| 42.6 µg/mL | COc1ccc(OCC(O)CNC2CCCC2)cc1.Cl (stereo not drawn) |
| > 44.3 µg/mL | CCOC(=O)Cc1csc(NC(=O)c2cc(C)on2)n1 |
| > 51.1 µg/mL | Cc1cc[n+](C(C)C(=O)c2ccc(Cl)cc2)cc1.[Br-] (stereo not drawn) |
| 0.8 µg/mL (≈ 2.95 µM) | Fc1ccc(Nc2nc(-c3ccncc3)cs2)cc1 |
| 8 µg/mL (≈ 25.3 µM) | Cc1ccc(C(=O)N[C@H](C(=O)NC2CCCCC2)C(C)C)cc1 |
| 29.4 µg/mL (≈ 142 µM) | CC(C)(C)NC(=O)NCc1cccnc1 |
| > 46.4 µg/mL | Cn1c(N)c(C(=O)COC(=O)C2CCCC2)c(=O)n(C)c1=O |
| 40.5 µg/mL (≈ 127 µM) | CCOC(=O)N1CCN(C(=O)c2cc3cc(F)ccc3[nH]2)CC1 |
| 4.2 µg/mL (≈ 13.8 µM) | Oc1ccccc1N1CCN(c2ccc3ccccc3n2)CC1 |
| 40.1 µg/mL (≈ 148 µM) | Cc1nc2ccccc2n1CCOc1ccc(F)cc1 |
| > 49.7 µg/mL | CCCN1C2CCCC1CC(NC(=O)c1cccc([N+](=O)[O-])c1)C2 (stereo not drawn) |
| 1.7 µg/mL (≈ 6.48 µM) | Cc1ccc(SCCSc2ncccn2)cc1 |
| 52.2 µg/mL (≈ 144 µM) | O=C(NCCCNC(=O)c1cnccn1)c1ccc(Br)cc1 |
| 1.2 µg/mL (≈ 4.52 µM) | C#CCn1cc(/C=C2\NC(=O)NC2=O)c2ccccc21 |
| > 50.6 µg/mL | O=C(O)C1CCCN1C(=O)OCC1c2ccccc2-c2ccccc21 (stereo not drawn) |
| 5.1 µg/mL (≈ 14.8 µM) | O=C(Nc1cccc(S(=O)(=O)N2CCCCC2)c1)c1ccccn1 |
| 39.8 µg/mL (≈ 134 µM) | CC(C)CCN1CCN(Cc2cccs2)CC1CCO (stereo not drawn) |
| 1.1 µg/mL (≈ 3.97 µM) | COc1ccc(C(=O)Nc2cccc3ccccc23)cc1 |

| SMILES | solubility kinetic |
| --- | --- |
| COc1ccccc1CCNC1CCCCCC1 | > 37.1 µg/mL |
| Cc1cccc(-n2c(=S)[nH]c3ccccc3c2=O)n1 | > 40.4 µg/mL |
| COc1cccc(CN2CC=C(c3ccc(F)cc3)CC2)c1 | 10.3 µg/mL (≈ 34.6 µM) |
